The text below walks through data of ChEMBL document CHEMBL1132946 (J Med Chem, 2000).

The target in one test is T1, Adenosine receptor A3 (Rattus norvegicus, UniProt P28647).
T1 sequence (P28647 whole entry): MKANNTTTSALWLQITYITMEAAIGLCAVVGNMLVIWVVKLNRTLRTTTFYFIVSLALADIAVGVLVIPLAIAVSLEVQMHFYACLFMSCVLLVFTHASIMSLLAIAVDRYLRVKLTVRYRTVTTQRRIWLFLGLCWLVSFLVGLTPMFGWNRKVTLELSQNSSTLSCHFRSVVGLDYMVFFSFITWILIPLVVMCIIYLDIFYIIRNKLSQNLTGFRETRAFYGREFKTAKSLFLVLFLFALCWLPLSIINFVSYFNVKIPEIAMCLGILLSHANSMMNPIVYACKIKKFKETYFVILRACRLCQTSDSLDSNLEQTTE
As to the kind of experiment: Ability to displace the specific binding of [3H](R)-PIA to adenosine A3 receptor from rat testis membranes. Format: cell membranes, Membrane.

The target of test [1] is T2, Adenosine receptor A1 (Bos taurus, UniProt P28190).
T2 sequence (P28190 whole entry): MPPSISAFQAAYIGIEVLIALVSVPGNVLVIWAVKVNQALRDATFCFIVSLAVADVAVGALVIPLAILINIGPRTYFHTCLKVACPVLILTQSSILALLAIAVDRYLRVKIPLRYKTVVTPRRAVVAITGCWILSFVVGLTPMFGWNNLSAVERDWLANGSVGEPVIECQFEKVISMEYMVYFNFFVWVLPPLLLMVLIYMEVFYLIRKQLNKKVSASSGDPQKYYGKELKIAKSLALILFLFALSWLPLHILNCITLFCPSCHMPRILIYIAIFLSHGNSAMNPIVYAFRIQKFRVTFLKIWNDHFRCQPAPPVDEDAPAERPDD
As to the kind of experiment: biochemical.

Test [2] deals with Adenosine receptor A2a (Bos taurus). As to the kind of experiment: biochemical.
The species named for test [3] is Bos taurus. As to the kind of experiment: Selectivity, ratio of affinity towards adenosine A2A to A1.
Test [4] is described as follows: Selectivity, ratio of affinity towards adenosine A3 to A1.
The species entered for test [5] is Bos taurus. As to the kind of experiment: Selectivity, ratio of affinity towards adenosine A3 to A2A.
For test [6], the target named is T2, Adenosine receptor A1. As to the kind of experiment: Displacement of [3H]CHA from A1 Adenosine receptor of Bovine brain cortical membranes. For orientation: Displacement assays read how much labelled ligand stays bound in the presence of the test substance.

Broadly, the Ki is a measure of affinity in units of concentration, obtained from inhibition or displacement.

Take `Cc1ccc2c(N=[N+]=[N-])cc(-c3ccccc3)nc2n1`: the Ki (on Adenosine receptor A3; at Adenosine receptor A1 [1]; in test [2]) was more than 10000 nM throughout.

In the case of `Oc1cc(-c2ccccc2)nc2nc(Br)ccc12`, the Ki at Adenosine receptor A3 was 2100 nM; on Adenosine receptor A1 [1], 0.7 nM.

As to `Oc1cc(-c2ccccc2)nc2nc(Oc3ccccc3)ccc12`, the inhibition constant (Ki) on Adenosine receptor A3 was more than 10000 nM; on Adenosine receptor A1 [1], 26 nM.

As to `Cn1c(=O)ccc2c(O)cc(-c3ccccc3)nc21`, the Ki at Adenosine receptor A3 was more than 10000 nM; at Adenosine receptor A1 [1], 4900 nM.

For `Cc1ccc2ccc(-c3ccccc3)nc2n1`, the Ki on Adenosine receptor A3 was more than 10000 nM; at Adenosine receptor A1 [1], 6900 nM.

`CCOc1ccc2c(O)cc(-c3ccccc3)nc2n1`: the Ki at Adenosine receptor A3 was more than 10000 nM; at Adenosine receptor A1 [1], 5.2 nM; in test [2] it was more than 10000 nM. The Selectivity (in the test listed under Bos taurus [3]; in test [4]) was more than 1920 throughout.

For `OC[C@H]1O[C@@H](n2cnc3c(NC4CCCCC4)ncnc32)[C@H](O)[C@@H]1O`, the Ki was determined as 25 nM on Adenosine receptor A3 and 1.3 nM at Adenosine receptor A1 [1].

Take `COc1ccc2c(O)cc(-c3ccccc3)nc2n1`: the values for the inhibition constant Ki on Adenosine receptor A3 and on Adenosine receptor A1 [1] were more than 10000 nM and 1.6 nM, respectively.

For `Cc1ccc2c(NN)cc(-c3ccccc3)nc2n1`, the Ki at Adenosine receptor A3 was more than 10000 nM; on Adenosine receptor A1 [1], 100 nM.

With `Cc1ccc2c(O)cc(-c3ccccc3)nc2n1`, the Ki at Adenosine receptor A3 came to 8800 nM; at Adenosine receptor A1 [1], 5.3 nM; in test [2], 460 nM. The Selectivity in the test filed under Bos taurus [3] stood at 87; in test [4], 1660; in the test listed under Bos taurus [5], 19.

Regarding `CCOC(=O)N1CCN(c2cc(-c3ccccc3)nc3nc(C)ccc23)CC1`, the figures for the Ki at Adenosine receptor A3 and on Adenosine receptor A1 [1] were more than 10000 nM and 1200 nM, respectively.

Take `Oc1cc(-c2ccccc2)nc2nc(Cl)ccc12`: the Ki was 2100 nM at Adenosine receptor A3 and 0.15 nM on Adenosine receptor A1 [1].

In the case of `Cc1ccc2c(O)cc(-c3ccccc3F)nc2n1`, the Ki came to 4600 nM on Adenosine receptor A3, 11 nM at Adenosine receptor A1 [1] and 470 nM in test [2]. Moreover, the results for the Selectivity (in the test filed under Bos taurus [3]; in test [4]; in the test listed under Bos taurus [5]) were 43, 418 and 10, respectively.

As to `Cc1ccc2c(NC3CCCCC3)cc(-c3ccccc3)nc2n1`, the figures for the Ki at Adenosine receptor A3 and on Adenosine receptor A1 [1] were more than 10000 nM and 28 nM, respectively.

For the compound `CCn1c(-c2ccccc2)cc(=O)c2ccc(C)nc21`, the Ki is more than 10000 nM on Adenosine receptor A3 and 450 nM on Adenosine receptor A1 [1].

For `Cc1ccc2c(N3CCNCC3)cc(-c3ccccc3)nc2n1`, the Ki at Adenosine receptor A3 was more than 10000 nM; on Adenosine receptor A1 [1], 8700 nM.

Turning to `Cc1ccc2c(Cl)cc(-c3ccccc3)nc2n1`, the values for the Ki (at Adenosine receptor A1 [6]; on Adenosine receptor A3; in test [2]) were 1000 nM, more than 10000 nM and more than 10000 nM, respectively. The Selectivity (in the test listed under Bos taurus [3]; in test [4]) was more than 10 throughout.

In the case of `Cc1ccc2c(Oc3ccccc3)cc(-c3ccccc3)nc2n1`, on Adenosine receptor A3, the Ki is more than 10000 nM.

Turning to `Oc1cc(-c2ccccc2)nc2nc(F)ccc12`, the Ki at Adenosine receptor A3 is more than 10000 nM; at Adenosine receptor A1 [1] it was 4.1 nM; in test [2] it was 170 nM. Also, the results for the Selectivity (in the test filed under Bos taurus [3]; in test [4]; in the test listed under Bos taurus [5]) were 41, more than 2440 and more than 59, respectively.

For `CCCn1c(=O)c2[nH]c(-c3ccc(OCC(=O)NCCN)cc3)nc2n(CCC)c1=O` [XANTHINE AMINE CONGENER], the values for the Ki on Adenosine receptor A3 and at Adenosine receptor A1 [1] were 418 nM and 1.3 nM, respectively.

On to `Cc1ccc2c(N(C)C)cc(-c3ccccc3)nc2n1`, for which the figures for the Ki at Adenosine receptor A3 and at Adenosine receptor A1 [1] were more than 10000 nM and 550 nM, respectively.

Take `Cc1ccc2c(S)cc(-c3ccccc3)nc2n1`: the Ki was more than 10000 nM at Adenosine receptor A3 and 80 nM at Adenosine receptor A1 [1].

Take `Cc1ccc2c(O)cc(-c3ccc(F)cc3)nc2n1`: the Ki on Adenosine receptor A3 came to 6100 nM; at Adenosine receptor A1 [1], 5.3 nM.

With `Oc1cc(-c2ccccc2)nc2ncccc12`, the Ki on Adenosine receptor A3 turned out to be 3000 nM; on Adenosine receptor A1 [1], 16 nM.

On to `Cc1ccc2c(O)cc(-c3ccc([N+](=O)[O-])cc3)nc2n1`, for which the Ki on Adenosine receptor A3 was more than 10000 nM; at Adenosine receptor A1 [1], 9.9 nM.

`COc1cc(-c2ccccc2)nc2nc(C)ccc12`: the Ki at Adenosine receptor A3 is more than 10000 nM; on Adenosine receptor A1 [1], 6000 nM.

Turning to `Nc1ccc2c(O)cc(-c3ccccc3)nc2n1`, the Ki is more than 10000 nM at Adenosine receptor A3 and 5.3 nM at Adenosine receptor A1 [1].

`Cc1ccc2c(N)cc(-c3ccccc3)nc2n1`: the Ki at Adenosine receptor A3 is more than 10000 nM; on Adenosine receptor A1 [1], 17 nM.

In the case of `O=c1ccc2c(O)cc(-c3ccccc3)nc2[nH]1`, the Ki on Adenosine receptor A3 and on Adenosine receptor A1 [1] was more than 10000 nM each time.

For the compound `COc1cc(-c2ccccc2)nc2c1ccc(=O)n2C`, the values for the Ki on Adenosine receptor A3 and at Adenosine receptor A1 [1] were more than 10000 nM and 1300 nM, respectively.
